Measured values taken from patent publication US11427567B2, “Imidazolyl pyrimidinylamine compounds as CDK2 inhibitors” (Incyte Corporation, priority 2019, dated 2022).

molecular target: CDK2/Cyclin E1 (Homo sapiens (Human), UniProt P24941); assay: CDK2/Cyclin E1 HTRF enzyme activity assay (Example A); assay type: biochemical; settings: 1 mM ATP
Experimental: Assays were conducted in white 384-well polystyrene plates in a final reaction volume of 8 μL. […] HTRF signals were read after 1 hour at room temperature on a PHERAstar FS plate reader (BMG Labtech). Data was analyzed with IDBS XLFit and GraphPad Prism 5.0 software using a three or four parameter dose response curve to determine IC50 for each compound.

Row | SMILES | IC50 [nM]
1 | CS(=O)(=O)N1CCC(Nc2ncc(C(F)(F)F)c(-c3cn(-c4c(F)cccc4C#N)cn3)n2)CC1 [Example 294, 3-Fluoro-2-(4-(2-((1-(methylsulfonyl)piperidin-4-yl)amino)-5-(trifluoromethyl)pyrimidin-4-yl)-1H-imidazol-1-yl)benzonitrile] | ≤ 50
2 | COc1nccc(-n2cnc(-c3nc(NC4CCN(S(C)(=O)=O)CC4)ncc3C(F)(F)F)c2)c1Cl [Example 295, 4-(1-(3-Chloro-2-methoxypyridin-4-yl)-1H-imidazol-4-yl)-N-(1-(methylsulfonyl)piperidin-4-yl)-5-(trifluoromethyl)pyrimidin-2-amine] | ≤ 50
3 | Cc1nccc(-n2cnc(-c3nc(NC4CCN(S(C)(=O)=O)CC4)ncc3C(F)(F)F)c2)c1Cl [Example 296, 4-(1-(3-Chloro-2-methylpyridin-4-yl)-1H-imidazol-4-yl)-N-(1-(methylsulfonyl)piperidin-4-yl)-5-(trifluoromethyl)pyrimidin-2-amine] | ≤ 50
4 | COc1nccc(-n2cnc(-c3nc(N[C@H]4CCN(S(C)(=O)=O)C[C@H]4F)ncc3C(F)(F)F)c2)c1C#N [Example 297, 4-(4-(2-(((3R,4S)-3-Fluoro-1-(methylsulfonyl)piperidin-4-yl)amino)-5-(trifluoromethyl)pyrimidin-4-yl)-1H-imidazol-1-yl)-2-methoxynicotinonitrile] | ≤ 50
5 | Cc1nc(-c2nc(N[C@H]3CCN(S(C)(=O)=O)C[C@H]3F)ncc2C(F)(F)F)cn1-c1ccncc1F [Example 298, N-((3R,4S)-3-Fluoro-1-(methylsulfonyl)piperidin-4-yl)-4-(1-(3-fluoropyridin-4-yl)-2-methyl-1H-imidazol-4-yl)-5-(trifluoromethyl)pyrimidin-2-amine] | ≤ 50
6 | Cc1nc(-c2nc(N[C@H]3CCN(S(C)(=O)=O)C[C@H]3F)ncc2C(F)(F)F)cn1-c1ccc(C#N)cc1F [Example 299, 3-Fluoro-4-(4-(2-(((3R,4S)-3-fluoro-1-(methylsulfonyl)piperidin-4-yl)amino)-5-(trifluoromethyl)pyrimidin-4-yl)-2-methyl-1H-imidazol-1-yl)benzonitrile] | ≤ 50
7 | COc1nccc(-n2cnc(-c3nc(N[C@H]4CCN(S(C)(=O)=O)C[C@H]4F)ncc3C(F)(F)F)c2)c1Cl [Example 300, 4-(1-(3-Chloro-2-methoxypyridin-4-yl)-1H-imidazol-4-yl)-N-((3R,4S)-3-fluoro-1-(methylsulfonyl)piperidin-4-yl)-5-(trifluoromethyl)pyrimidin-2-amine] | ≤ 50
8 | Cc1nccc(-n2cnc(-c3nc(N[C@H]4CCN(S(C)(=O)=O)C[C@H]4F)ncc3C(F)(F)F)c2)c1Cl [Example 301, 4-(1-(3-Chloro-2-methylpyridin-4-yl)-1H-imidazol-4-yl)-N-((3R,4S)-3-fluoro-1-(methylsulfonyl)piperidin-4-yl)-5-(trifluoromethyl)pyrimidin-2-amine] | ≤ 50
9 | Cc1c(-n2cnc(-c3nc(N[C@H]4CCN(S(C)(=O)=O)C[C@H]4F)ncc3C(F)(F)F)c2)ccnc1C#N [Example 302, 4-(4-(2-(((3R,4S)-3-Fluoro-1-(methylsulfonyl)piperidin-4-yl)amino)-5-(trifluoromethyl)pyrimidin-4-yl)-1H-imidazol-1-yl)-3-methylpicolinonitrile] | ≤ 50
10 | Cc1nc(-c2nc(NC3CCN(S(C)(=O)=O)CC3)ncc2C(F)(F)F)cn1-c1ccc(C#N)cc1F [Example 303, 3-Fluoro-4-(2-methyl-4-(2-((1-(methylsulfonyl)piperidin-4-yl)amino)-5-(trifluoromethyl)pyrimidin-4-yl)-1H-imidazol-1-yl)benzonitrile] | ≤ 50
11 | Cc1nc(-c2nc(NC3CCN(S(C)(=O)=O)CC3)ncc2C(F)(F)F)cn1-c1cccc(C#N)c1F [Example 304, 2-Fluoro-3-(2-methyl-4-(2-((1-(methylsulfonyl)piperidin-4-yl)amino)-5-(trifluoromethyl)pyrimidin-4-yl)-1H-imidazol-1-yl)benzonitrile] | ≤ 50
12 | Cc1nc(-c2nc(N[C@H]3CCN(S(C)(=O)=O)C[C@H]3F)ncc2C(F)(F)F)cn1-c1cccc(C#N)c1F [Example 305, 2-Fluoro-3-(4-(2-(((3R,4S)-3-fluoro-1-(methylsulfonyl)piperidin-4-yl)amino)-5-(trifluoromethyl)pyrimidin-4-yl)-2-methyl-1H-imidazol-1-yl)benzonitrile] | ≤ 50
13 | Cc1c(C#N)cccc1-n1cc(-c2nc(N[C@H]3CCN(S(C)(=O)=O)C[C@H]3F)ncc2C(F)(F)F)nc1C [Example 306, 3-(4-(2-(((3R,4S)-3-Fluoro-1-(methylsulfonyl)piperidin-4-yl)amino)-5-(trifluoromethyl)pyrimidin-4-yl)-2-methyl-1H-imidazol-1-yl)-2-methylbenzonitrile] | ≤ 50
14 | CS(=O)(=O)N1CCC(Nc2ncc(C(F)(F)F)c(-c3cn(-c4ccnc(C#N)c4Cl)cn3)n2)CC1 [Example 307, 3-Chloro-4-(4-(2-((1-(methylsulfonyl)piperidin-4-yl)amino)-5-(trifluoromethyl)pyrimidin-4-yl)-1H-imidazol-1-yl)picolinonitrile] | ≤ 50
15 | CS(=O)(=O)N1CC[C@H](Nc2ncc(C(F)(F)F)c(-c3cn(-c4ccnc(C#N)c4Cl)cn3)n2)[C@H](F)C1 [Example 308, 3-Chloro-4-(4-(2-(((3R,4S)-3-fluoro-1-(methylsulfonyl)piperidin-4-yl)amino)-5-(trifluoromethyl)pyrimidin-4-yl)-1H-imidazol-1-yl)picolinonitrile] | ≤ 50
16 | Cc1nc(-c2nc(NC3CCN(S(C)(=O)=O)CC3)ncc2C(F)(F)F)cn1-c1ccnc(C#N)c1F [Example 309, 3-Fluoro-4-(2-methyl-4-(2-((1-(methylsulfonyl)piperidin-4-yl)amino)-5-(trifluoromethyl)pyrimidin-4-yl)-1H-imidazol-1-yl)picolinonitrile] | ≤ 50
17 | Cc1nc(-c2nc(N[C@H]3CCN(S(C)(=O)=O)C[C@H]3F)ncc2C(F)(F)F)cn1-c1ccnc(C#N)c1F [Example 310, 3-Fluoro-4-(4-(2-(((3R,4S)-3-fluoro-1-(methylsulfonyl)piperidin-4-yl)amino)-5-(trifluoromethyl)pyrimidin-4-yl)-2-methyl-1H-imidazol-1-yl)picolinonitrile] | ≤ 50
18 | COc1nccc(-n2cc(-c3nc(N[C@H]4CCN(S(C)(=O)=O)C[C@H]4F)ncc3C(F)(F)F)nc2C)c1F [Example 311, N-((3R,4S)-3-Fluoro-1-(methylsulfonyl)piperidin-4-yl)-4-(1-(3-fluoro-2-methoxypyridin-4-yl)-2-methyl-1H-imidazol-4-yl)-5-(trifluoromethyl)pyrimidin-2-amine] | ≤ 50
19 | COc1nccc(-n2cnc(-c3nc(NC4CCN(S(C)(=O)=O)CC4)ncc3C(F)(F)F)c2)c1C [Example 312, 4-(1-(2-Methoxy-3-methylpyridin-4-yl)-1H-imidazol-4-yl)-N-(1-(methylsulfonyl)piperidin-4-yl)-5-(trifluoromethyl)pyrimidin-2-amine] | ≤ 50
20 | Cc1nccc(-n2cc(-c3nc(N[C@H]4CCN(S(C)(=O)=O)C[C@H]4F)ncc3C(F)(F)F)nc2C)c1F [Example 313, N-((3R,4S)-3-Fluoro-1-(methylsulfonyl)piperidin-4-yl)-4-(1-(3-fluoro-2-methylpyridin-4-yl)-2-methyl-1H-imidazol-4-yl)-5-(trifluoromethyl)pyrimidin-2-amine] | ≤ 50
21 | COc1nccc(-n2cc(-c3nc(NC4CCN(S(C)(=O)=O)CC4)ncc3C(F)(F)F)nc2C)c1F [Example 314, 4-(1-(3-Fluoro-2-methoxypyridin-4-yl)-2-methyl-1H-imidazol-4-yl)-N-(1-(methylsulfonyl)piperidin-4-yl)-5-(trifluoromethyl)pyrimidin-2-amine] | ≤ 50
22 | CCN1CCN(c2nccc(-n3cnc(-c4nc(NC5CCN(S(C)(=O)=O)CC5)ncc4C(F)(F)F)c3)c2C#N)CC1 [Example 315, 2-(4-Ethylpiperazin-1-yl)-4-(4-(2-((1-(methylsulfonyl)piperidin-4-yl)amino)-5-(trifluoromethyl)pyrimidin-4-yl)-1H-imidazol-1-yl)nicotinonitrile] | ≤ 50
23 | CN1CCN(c2nccc(-n3cnc(-c4nc(NC5CCN(S(C)(=O)=O)CC5)ncc4C(F)(F)F)c3)c2C#N)CC1 [Example 316, 2-(4-Methylpiperazin-1-yl)-4-(4-(2-((1-(methylsulfonyl)piperidin-4-yl)amino)-5-(trifluoromethyl)pyrimidin-4-yl)-1H-imidazol-1-yl)nicotinonitrile] | ≤ 50
24 | CS(=O)(=O)N1CCC(Nc2ncc(C(F)(F)F)c(-c3cn(-c4ccnc(N5CCOCC5)c4C#N)cn3)n2)CC1 [Example 317, 4-(4-(2-((1-(Methylsulfonyl)piperidin-4-yl)amino)-5-(trifluoromethyl)pyrimidin-4-yl)-1H-imidazol-1-yl)-2-morpholinonicotinonitrile] | ≤ 50
25 | CCN1CCN(c2nccc(-n3cnc(-c4nc(NC5CCN(S(C)(=O)=O)CC5)ncc4C(F)(F)F)c3)c2Cl)CC1 [Example 318, 4-(1-(3-Chloro-2-(4-ethylpiperazin-1-yl)pyridin-4-yl)-1H-imidazol-4-yl)-N-(1-(methylsulfonyl)piperidin-4-yl)-5-(trifluoromethyl)pyrimidin-2-amine] | ≤ 50
26 | CN1CCN(c2nccc(-n3cnc(-c4nc(NC5CCN(S(C)(=O)=O)CC5)ncc4C(F)(F)F)c3)c2Cl)CC1 [Example 319, 4-(1-(3-Chloro-2-(4-methylpiperazin-1-yl)pyridin-4-yl)-1H-imidazol-4-yl)-N-(1-(methylsulfonyl)piperidin-4-yl)-5-(trifluoromethyl)pyrimidin-2-amine] | ≤ 50
27 | CS(=O)(=O)N1CCC(Nc2ncc(C(F)(F)F)c(-c3cn(-c4ccnc(N5CCOCC5)c4Cl)cn3)n2)CC1 [Example 320] | ≤ 50
28 | CN(C)c1nccc(-n2cnc(-c3nc(NC4CCN(S(C)(=O)=O)CC4)ncc3C(F)(F)F)c2)c1Cl [Example 321, 4-(1-(3-Chloro-2-(dimethylamino)pyridin-4-yl)-1H-imidazol-4-yl)-N-(1-(methylsulfonyl)piperidin-4-yl)-5-(trifluoromethyl)pyrimidin-2-amine] | ≤ 50
